Reference: PubChem BioAssay (NCI)
Where “and” joins values, the source holds several entries; their conditions need not be identical. Identical values can stand only once.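 Where inhibition never reached the appropriate level, the endpoint shown equals the highest concentration tested. Otherwise, values were interpolated linearly from a five-concentration, 48-hour dose response in 96-well plates. At the GI50, growth is halved. TGI: concentration producing complete growth inhibition.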

Columns and labels:
Assay in all cases: NCI anticancer screen, dose series, 48 h
786-0 renal = tested on: 786-0 renal
OVCAR-3 ovarian = tested on: OVCAR-3 ovarian
HCT-15 colon = tested on: HCT-15 colon
HL-60(TB) leukemia = tested on: HL-60(TB) leukemia
TK-10 renal = tested on: TK-10 renal
SW-620 colon = tested on: SW-620 colon
DU-145 prostate = tested on: DU-145 prostate
OVCAR-5 ovarian = tested on: OVCAR-5 ovarian
T-47D breast = tested on: T-47D breast
NCI-H23 lung = tested on: NCI-H23 lung

Compound | GI50 (786-0 renal) | TGI (786-0 renal) [µM] | GI50 (OVCAR-3 ovarian) [µM] | TGI (OVCAR-3 ovarian) | GI50 (HCT-15 colon) | TGI (HCT-15 colon) [µM] | GI50 (HL-60(TB) leukemia) | TGI (HL-60(TB) leukemia) | GI50 (TK-10 renal) [µM] | TGI (TK-10 renal) | GI50 (SW-620 colon) [µM] | TGI (SW-620 colon) [µM] | GI50 (DU-145 prostate) [µM] | TGI (DU-145 prostate) [µM] | GI50 (OVCAR-5 ovarian) | TGI (OVCAR-5 ovarian) [µM] | GI50 (T-47D breast) [µM] | TGI (T-47D breast) [µM] | GI50 (NCI-H23 lung) [µM] | TGI (NCI-H23 lung) [µM]
O=S(=O)(NC1=NCCN1C(=S)SN1CCn2c1nsc2=S)c1ccccc1Cl | 16.7 µM | 39.1 | 3.89 | 17.7 µM | 18.7 µM | 53 | 0.342 µM | 8.62 µM | 16.3 | 64.2 µM | 10.4 | 77.9 | 9.15 | 53.1 | 12.2 µM | 27.7 | 17 | > 100 |  | 
O=C(N/N=C/c1ccc(Cl)cc1Cl)c1ccc2nc(-c3ccc(Cl)cc3)[nH]c2c1 | 1.79 µM | 3.48 | 1.84 | 3.39 µM | 1.42 µM | 3.03 | 1.85 µM | 6.53 µM | 2.06 | 4.3 µM | 1.83 | 3.69 | 1.76 | 3.44 | 1.85 µM | 3.97 | 1.79 | 3.83 | 1.93 | 4.43
COc1cc(F)c(/C=C/c2cc(/C=C/c3cc(OC)c(OC)cc3F)n(-c3cc(F)cc(F)c3)n2)cc1OC | 1.63 µM | 3.22 | 2.47 | 6.37 µM | 2.84 µM | 9.05 | > 100 µM | > 100 µM | 3.63 | 28.3 µM | 2.44 | 5.86 | 3.68 | 18.1 | 2.96 µM | 10.3 | 3.46 | 20.7 | 2.53 | 7.15
COc1cc(NC(=O)NCc2ccco2)ccc1-c1ccc(NC(=O)NCc2ccco2)cc1OC | 2.35 µM | 11.4 | 2.59 | 16.2 µM | 0.398 µM | > 100 | > 100 µM | > 100 µM | 1.01 | 9.87 µM | 6.15 | > 100 | 3.01 | > 100 | 19.5 µM | > 100 | 2.38 | > 100 | 2.99 | 11
CCc1ccc2nccc(NCCCN(C)C)c2c1[N+](=O)[O-] |  | > 100 |  | > 100 µM |  |  |  | > 100 µM |  | > 100 µM |  | > 100 |  | > 100 |  | 90.8 |  | > 100 |  | > 100
C[C@@H](COCCC(=O)N1CCN(c2ncc(C(F)(F)F)cn2)CC1)Nc1cn[nH]c(=O)c1C(F)(F)F | 59.1 µM | > 100 | 97.5 | > 100 µM | > 100 µM | > 100 | 16.1 µM | > 100 µM | > 100 | > 100 µM | 3.84 | > 100 | 37.6 | > 100 | > 100 µM | > 100 | 33.1 | > 100 | 28.3 | > 100
CCNNC(=O)[C@@H]1[C@H](c2cc(OC)c(OC)c(OC)c2)c2cc3c(cc2[C@H](O)[C@H]1CO)OCO3 | 0.495 µM | > 100 | 0.275 | 0.804 µM | 0.398 µM | > 100 | 0.277 µM | 0.707 µM | 30.8 | > 100 µM | 0.396 | > 100 | 0.537 | > 100 | 0.519 µM | > 100 | > 100 | > 100 | 0.372 | > 100
COc1cccc(CCC(=O)c2cc3c(N)c(C(=O)Nc4cccc(Cl)c4C)sc3nc2C)c1 | 0.53 µM | > 100 | 0.37 | 2.78 µM | 0.433 µM | > 100 | 0.543 µM | > 100 µM | 6.46 | > 100 µM | 0.469 | > 100 | 1.91 | > 100 | 2.68 µM | > 100 | 0.588 | > 100 | 2.35 | > 100
Nc1cc(S(N)(=O)=O)ccc1SSc1ccc(S(N)(=O)=O)cc1N |  | > 100 |  | > 100 µM |  | > 100 |  | > 100 µM |  | > 100 µM |  | > 100 |  | > 100 |  | > 100 |  | > 100 |  | > 100
CCOc1nccc2c1nc(-c1nonc1N)n2CC | > 25 µM | > 25 | > 25 | > 25 µM | > 25 µM | > 25 | > 25 µM | > 25 µM | > 25 | > 25 µM | > 25 | > 25 | > 25 | > 25 | > 25 µM | > 25 | > 25 | > 25 | > 25 | > 25
Nc1c(C(=O)N/N=C/c2ccc(-c3cc(Cl)c(Cl)cc3Cl)o2)cnn1-c1ccnc2c(C(F)(F)F)cccc12 | 3.96 µM | > 100 | 3.1 | > 100 µM | 3.43 µM | > 100 | 3.18 µM | > 100 µM | 3.48 | > 100 µM | 4.05 | > 100 | 3.56 | > 100 | 5.29 µM | > 100 | 2.93 | > 100 | 3.32 | 47.2
O=c1oc2c3ccc4cnccc4c3[nH]c2c2ccccc12 | 4.47 µM | 17.6 | 18.3 | 32.4 µM | 30.7 µM | > 100 | 17.3 µM | > 100 µM | 43.8 | > 100 µM | 4.58 | 23.5 | 12.3 | 32.9 | 16.9 µM | 40.9 | 9.78 | > 100 | 23.3 | 80.1
CC(C)C[C@H](NC(=O)[C@@H](NC(=O)c1cccc(-c2ccccc2)n1)[C@@H](C)O)B(O)O | 0.012 µM and 0.0147 µM |  | 0.00385 | 0.0191 µM and < 0.011 µM | 0.0176 µM and < 0.0182 µM | 0.107 | 0.00379 µM and 0.0101 µM | 0.162 µM and 0.0287 µM | 0.00352 | 0.0592 µM and < 0.0273 µM | 0.00411 | 2.34 | 0.0077 | 1.81 | 0.00843 µM and < 0.0112 µM | 0.0513 | 0.00506 | 0.0231 | 0.00633 | 
